Laboratory results from patent US20230303564A1, “PYRIMIDINE RING COMPOUND” (MEDSHINE DISCOVERY INC., priority 2020, published 2023).
pIC50: −log10 of the molar value.

biological target: CDK1/CyclinB1 (Homo sapiens (Human), UniProt P06493); experiment: CDK1/CyclinB1 enzyme activity test (ADP-Glo); type: biochemical; details: 25 μM ATP, 25° C. 120 minutes, read-out: CDK1/Cyclin B IC50
Experimental: CDK1/CyclinB1 Enzyme Reaction System
(§1) Enzymes, substrates, ATP, and inhibitors were diluted by kinase buffer in the kit. The compounds to be tested were diluted 5-fold with a multi-channel pipette to the eighth concentration, that is, from 50 μM to 0.65 nM, the concentration of DMSO was 5%, and a double-hole experiment was set up. 1 μL of each concentration gradient of inhibitors, 2 μL of CDK1/CyclinB1 enzyme (12.5 ng), 2 μL mixture of substrate and ATP (25 μM adenosine triphosphate, 0.2 μg/μL substrate) were added to the microplates, and the final concentration gradient of the compound was 10 μM to 0.13 nM. The reaction system was reacted at 25° C. for 120 minutes. After the reaction, 5 μL of ADP-Glo reagent was added to each well, the reaction was carried out at 25° C. for 40 minutes, after the reaction was completed, 10 μL of kinase detection reagent was added to each well, the reaction was carried out at 25° C. for 30 minutes, the multiple label analyzer was used to read the chemiluminescence with an integration time of 0.5 seconds.
(§2) The equation (Sample−Min)/(Max−Min)*100% was used to convert the raw data into inhibition rate, and the value of IC50 can be obtained by curve fitting with four parameters (obtained by log (inhibitor) vs. response-Variable slope mode in GraphPad Prism). The enzymatic inhibitory activity of the compounds of the present disclosure on CDK1/CyclinB1, CDK2/CyclinA2, CDK2/CyclinE1, CDK4/CyclinD1, CDK6/CyclinD1, CDK7/CyclinH/MAT1, CDK9/CyclinT1 was provided in Table 1.

Chain of CDK1/CyclinB1 (P06493 whole entry): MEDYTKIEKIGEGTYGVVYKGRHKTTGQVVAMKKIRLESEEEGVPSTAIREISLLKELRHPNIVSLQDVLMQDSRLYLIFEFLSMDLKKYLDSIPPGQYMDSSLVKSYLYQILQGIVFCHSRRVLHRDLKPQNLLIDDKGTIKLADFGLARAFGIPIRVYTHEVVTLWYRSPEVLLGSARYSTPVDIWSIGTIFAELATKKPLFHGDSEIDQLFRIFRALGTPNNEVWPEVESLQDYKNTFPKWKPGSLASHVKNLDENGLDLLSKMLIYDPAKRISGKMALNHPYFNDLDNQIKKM
Chain of CDK1/CyclinB1 (P14635 whole entry partner): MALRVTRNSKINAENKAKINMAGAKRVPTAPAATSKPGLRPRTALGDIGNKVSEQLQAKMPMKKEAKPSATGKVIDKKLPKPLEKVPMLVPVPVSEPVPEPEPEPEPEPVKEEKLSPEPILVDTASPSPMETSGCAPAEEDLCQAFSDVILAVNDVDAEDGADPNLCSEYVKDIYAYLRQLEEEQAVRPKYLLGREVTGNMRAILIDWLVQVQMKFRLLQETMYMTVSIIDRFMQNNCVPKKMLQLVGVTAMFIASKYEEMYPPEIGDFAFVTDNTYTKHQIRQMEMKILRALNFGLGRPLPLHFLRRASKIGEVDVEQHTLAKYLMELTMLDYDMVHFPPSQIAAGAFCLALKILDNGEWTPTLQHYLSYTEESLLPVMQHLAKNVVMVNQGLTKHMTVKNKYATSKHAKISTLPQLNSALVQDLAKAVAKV

SMILES | pIC50
CS(=O)(=O)N1CCC(Nc2ncc3cc(C(F)F)nc(N[C@H]4CCCC4(F)F)c3n2)CC1 (single isomer, unassigned) [Compound 21] | 8.07
C[C@@]1(O)CCC[C@H]1Nc1nccc2cnc(NC3CCN(S(C)(=O)=O)CC3)nc12 [Compound 1] | 8.57

biological target: CDK2/CyclinA2 (Homo sapiens (Human), UniProt P24941); experiment: CDK2/CyclinA2 enzyme activity test (ADP-Glo); type: biochemical; details: 50 μM ATP, 25° C. 60 minutes, read-out: CDK2/Cyclin A2 IC50
Experimental: CDK2/CyclinA2 Enzyme Reaction System
as §1, with “CDK2/CyclinA2” for “CDK1/CyclinB1”, “(1.6” for “(12.5”, “(50” for “(25”, “ATP, 0.1” for “adenosine triphosphate, 0.2”, “60” for “120”, “seconds” for “seconds.”
as §2

SMILES | pIC50
Cc1cc2cnc(NC3CCN(S(C)(=O)=O)CC3)nc2c(N[C@@H]2CCC[C@@]2(C)O)n1 (racemic) [Compound 6] | 9.28
C[C@@]1(O)CCC[C@H]1Nc1nccc2cnc(NC3CCN(S(C)(=O)=O)CC3)nc12 [Compound 1] | 9.25

biological target: CDK2/CyclinE1 (Homo sapiens (Human), UniProt P24941); experiment: CDK2/CyclinE1 enzyme activity test (ADP-Glo); type: biochemical; details: 150 μM ATP, 25° C. 60 minutes, read-out: CDK2/Cyclin E1 IC50
Experimental: CDK2/CyclinE1 Enzyme Reaction System
as §1, with “CDK2/CyclinE1” for “CDK1/CyclinB1”, “(2” for “(12.5”, “(150” for “(25”, “ATP, 0.1” for “adenosine triphosphate, 0.2”, “60” for “120”
as §2

SMILES | pIC50
CS(=O)(=O)N1CCC(Nc2ncc3cc(C(F)F)nc(N[C@H]4CCCC4(F)F)c3n2)CC1 (single isomer, unassigned) [Compound 21] | 8.36
C[C@@]1(O)CCC[C@H]1Nc1nccc2cnc(NC3CCN(S(C)(=O)=O)CC3)nc12 [Compound 1] | 8.78

biological target: CDK4/CyclinD1 (Homo sapiens (Human), UniProt P11802); experiment: CDK4/CyclinD1 enzyme activity test (LANCE Ultra TR-FRET); type: biochemical; details: 350 μM ATP, 25° C. 120 minutes, read-out: CDK4/Cyclin D1 IC50
Sequence (P11802 whole entry): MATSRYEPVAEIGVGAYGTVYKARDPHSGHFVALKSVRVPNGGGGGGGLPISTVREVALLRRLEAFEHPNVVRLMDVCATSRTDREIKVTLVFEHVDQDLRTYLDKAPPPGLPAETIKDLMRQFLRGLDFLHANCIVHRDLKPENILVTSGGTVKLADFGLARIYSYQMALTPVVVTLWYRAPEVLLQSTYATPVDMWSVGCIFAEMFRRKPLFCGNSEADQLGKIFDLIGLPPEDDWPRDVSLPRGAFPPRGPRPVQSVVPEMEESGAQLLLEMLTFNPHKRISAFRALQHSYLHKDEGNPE
Sequence (P24385 whole entry partner): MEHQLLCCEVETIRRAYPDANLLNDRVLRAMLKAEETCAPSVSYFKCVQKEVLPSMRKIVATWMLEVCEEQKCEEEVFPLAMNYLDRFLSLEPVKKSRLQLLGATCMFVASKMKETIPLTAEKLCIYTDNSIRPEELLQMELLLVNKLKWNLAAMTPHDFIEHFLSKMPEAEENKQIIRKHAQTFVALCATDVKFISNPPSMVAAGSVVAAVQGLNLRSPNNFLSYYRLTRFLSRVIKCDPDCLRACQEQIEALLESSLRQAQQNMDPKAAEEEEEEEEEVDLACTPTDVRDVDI
Experimental: CDK4/CyclinD1 Enzyme Reaction System
(§3) Preparation of Kinase Buffer:
(§4) The composition of the buffer: 50 mM of hydroxyethylpiperazine ethanesulfonic acid solution at pH 7.5, 1 mM of ethylenediaminetetraacetic acid, 10 mM of magnesium chloride, 0.01% Brij-35, and 2 mM of dithiothreitol.
(§5) Enzymes, substrate LANCE Ultra ULight™-4E-BP-1(Thr37146) Peptide, ATP, and inhibitors were diluted by kinase buffer.
(§6) The compounds to be tested were diluted 5-fold with a multi-channel pipette to the eighth concentration, that is, from 40 μM to 0.512 nM, the concentration of DMSO was 4%, and a double-hole experiment was set up. […] The reaction system was reacted at 25° C. for 120 minutes. After the reaction, 5 μL mixture of EDTA and 2× LANCE™ Detection Buffer (1:1) were added to each well, the reaction was carried out at 25° C. for 5 minutes, after the reaction was completed, 5 μL of LANCE Ultra Eu-anti-P-4E-BP1(Thr37MS) (4 nM) was added to each well, the reaction was carried out at 25° C. for 60 minutes, the reaction signal was detected by Nivo instrument according to the principle of time-resolved fluorescence resonance energy transfer.
as §2

SMILES | pIC50
Cc1cc2cnc(NC3CCN(S(C)(=O)=O)CC3)nc2c(N[C@@H]2CCC[C@@]2(C)O)n1 (racemic) [Compound 6] | 8.97
CS(=O)(=O)N1CCC(Nc2ncc3cc(C(F)F)nc(N[C@H]4CCCC4(F)F)c3n2)CC1 (single isomer, unassigned) [Compound 21] | 9.34
C[C@@]1(O)CCC[C@H]1Nc1nccc2cnc(NC3CCN(S(C)(=O)=O)CC3)nc12 [Compound 1] | 8.41

biological target: CDK6/CyclinD1 (Homo sapiens (Human), UniProt Q00534); experiment: CDK6/CyclinD1 enzyme activity test (LANCE Ultra TR-FRET); type: biochemical; details: 250 μM ATP, 25° C. 120 minutes, read-out: CDK6/Cyclin D1 IC50
Sequence (Q00534 whole entry): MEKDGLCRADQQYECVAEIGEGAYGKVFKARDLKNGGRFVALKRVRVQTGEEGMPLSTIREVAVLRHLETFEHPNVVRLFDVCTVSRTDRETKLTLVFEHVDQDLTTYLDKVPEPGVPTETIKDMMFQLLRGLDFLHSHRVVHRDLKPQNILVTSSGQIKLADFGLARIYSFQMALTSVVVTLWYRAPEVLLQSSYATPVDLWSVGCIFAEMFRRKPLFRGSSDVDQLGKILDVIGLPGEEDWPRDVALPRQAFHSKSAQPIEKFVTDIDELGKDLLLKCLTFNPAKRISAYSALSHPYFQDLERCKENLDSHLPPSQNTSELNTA
Sequence (P24385 whole entry partner): as the sequence (P24385 whole entry partner) above
Experimental: CDK6/CyclinD1 Enzyme Reaction System
as §3, §4, §5, §6, §2

SMILES | pIC50
Cc1cc2cnc(NC3CCN(S(C)(=O)=O)CC3)nc2c(N[C@@H]2CCC[C@@]2(C)O)n1 (racemic) [Compound 6] | 8.81
CS(=O)(=O)N1CCC(Nc2ncc3cc(C(F)F)nc(N[C@H]4CCCC4(F)F)c3n2)CC1 (single isomer, unassigned) [Compound 21] | 9.47
C[C@@]1(O)CCC[C@H]1Nc1nccc2cnc(NC3CCN(S(C)(=O)=O)CC3)nc12 [Compound 1] | 8.64

biological target: CDK9/CyclinT1 (Homo sapiens (Human), UniProt P50750); experiment: CDK9/CyclinT1 enzyme activity test (ADP-Glo); type: biochemical; details: 100 μM ATP, 25° C. 120 minutes, read-out: CDK 9/Cyclin T1 IC50
Sequence (P50750 whole entry): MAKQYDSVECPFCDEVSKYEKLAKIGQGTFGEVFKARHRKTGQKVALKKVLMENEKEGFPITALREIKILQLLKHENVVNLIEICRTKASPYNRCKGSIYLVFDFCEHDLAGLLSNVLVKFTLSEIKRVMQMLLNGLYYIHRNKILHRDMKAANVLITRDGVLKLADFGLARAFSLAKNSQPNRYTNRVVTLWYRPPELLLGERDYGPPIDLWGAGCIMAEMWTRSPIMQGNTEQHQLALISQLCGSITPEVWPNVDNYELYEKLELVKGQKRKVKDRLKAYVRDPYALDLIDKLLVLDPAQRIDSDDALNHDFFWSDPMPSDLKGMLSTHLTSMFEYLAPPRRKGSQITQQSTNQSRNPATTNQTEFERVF
Sequence (O60563 whole entry partner): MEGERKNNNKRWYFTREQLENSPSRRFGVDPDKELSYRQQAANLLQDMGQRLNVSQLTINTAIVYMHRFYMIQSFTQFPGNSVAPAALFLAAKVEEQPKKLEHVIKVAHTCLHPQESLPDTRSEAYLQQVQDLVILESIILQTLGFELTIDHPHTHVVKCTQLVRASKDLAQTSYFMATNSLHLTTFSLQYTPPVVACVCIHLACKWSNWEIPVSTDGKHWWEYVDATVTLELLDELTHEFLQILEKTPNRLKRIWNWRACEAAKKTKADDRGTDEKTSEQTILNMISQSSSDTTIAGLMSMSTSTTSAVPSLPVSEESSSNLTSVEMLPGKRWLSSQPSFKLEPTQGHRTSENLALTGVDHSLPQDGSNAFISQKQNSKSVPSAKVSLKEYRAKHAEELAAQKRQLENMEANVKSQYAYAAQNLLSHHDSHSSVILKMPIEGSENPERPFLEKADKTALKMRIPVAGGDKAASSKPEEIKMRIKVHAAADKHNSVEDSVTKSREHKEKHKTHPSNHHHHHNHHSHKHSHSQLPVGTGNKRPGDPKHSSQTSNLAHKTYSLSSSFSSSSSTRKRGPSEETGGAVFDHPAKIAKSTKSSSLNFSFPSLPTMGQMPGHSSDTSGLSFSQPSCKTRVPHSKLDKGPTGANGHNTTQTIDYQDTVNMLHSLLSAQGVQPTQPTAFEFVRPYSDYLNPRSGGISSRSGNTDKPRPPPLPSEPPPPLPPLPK
Experimental: CDK9/CyclinT1 Enzyme Reaction System
as §1, with “CDK9/CyclinT1” for “CDK1/CyclinB1”, “(4” for “(12.5”, “(100” for “(25”, “ATP,” for “adenosine triphosphate,”
as §2

SMILES | pIC50
CS(=O)(=O)N1CCC(Nc2ncc3cc(C(F)F)nc(N[C@H]4CCCC4(F)F)c3n2)CC1 (single isomer, unassigned) [Compound 21] | 7.82

system: OVCAR-3 cells; experiment: Cell activity test, anti-proliferation (CellTiter Glo), OVCAR-3; type: cell-based, human; details: OVCAR-3, 7 days of culture
Experimental: 2) Day 1: Laying Cell Plates
(6) 0.7 mL of cell suspension was pipetted into the counting cup, the cells were counted on ViCell XR, and the cell suspension was diluted separately with culture medium to the required cell concentration for laying cell plates: 1000/30 ul.
(7) Microplates (2 plates) were required, 100 uL of phosphate buffered saline was added to the peripheral wells of the 384-well plate, 30 uL of cell suspension was added to the other wells, and the cell plate was placed into incubator for culture.
(1) Compound preparation: the stock solution of the compound to be tested was 10 mM.
(2) The compound to be tested was diluted 3 times with DMSO for 10 gradients.
(2) The compound to be tested was diluted with culture medium, and the highest final concentration was 10 μM.
(4) 10 μL of the compound was pipetted into the 384-well plate, and then the cell plate was placed back into the incubator for culture.
4) Adding CTG and Reading the Plate
(1) After 7 days of culture, 50 ul CellTiter Glo was added to the cell plate, shaken for 10 minutes in the dark, and left at room temperature for 5 minutes.
(2) The plate was read on Envision with the program: US LUM 384 (CPS). The experiment was originally stored in the personal disk:
1. The mean and standard deviation of 0% inhibition (DMSO row, ZPE) and 100% inhibition (PBS row, HPE) were calculated;
2. Inhibition rate (%)=(1−(sample value-average value of 100% inhibition)/(average value of 0% inhibition-average value of 100% inhibition))*100;
3. The curve was fitted by GraphPad 8.0 software;

SMILES | pIC50
CS(=O)(=O)N1CCC(Nc2ncc3cc(C(F)F)nc(N[C@H]4CCCC4(F)F)c3n2)CC1 (single isomer, unassigned) [Compound 21] | 7.82
